PubChem BioAssay AID248 (DTP/NCI, 2004)
Inconclusive results and toxic doses are left out. No stated cut-off is given here; in the data, active means T/C of 150% or more; inactive means T/C below 125%.

System: L1210 leukemia ip in BDF1 mice, survival T/C
Assay: NCI In Vivo Anticancer Drug Screen. Data for tumor model L1210 Leukemia (intraperitoneal) in B6D2F1 (BDF1) mice
Conditions: endpoint: mean survival time, higher = longer survival
Outline: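 Transplantable tumor model; survival measured in treated vs vehicle control mice. Value = treated/control.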

[1] = dose: 100.0 mg/kg/injection, schedule: Q01DX001 (ip), vehicle: saline with Tween-80
[2] = dose: 50.0 mg/kg/injection, schedule: Q01DX009 (ip), vehicle: saline with Tween-80
[3] = dose: 100.0 mg/kg/injection, schedule: Q01DX001 (ip), vehicle: carboxymethylcellulose (CMC)
[4] = dose: 200.0 mg/kg/injection, schedule: Q01DX001 (ip), vehicle: carboxymethylcellulose (CMC)
[5] = dose: 400.0 mg/kg/injection, schedule: Q01DX001 (ip), vehicle: carboxymethylcellulose (CMC)

Measured: T/C

COc1cccc(C(=O)c2cc(O)c3c(c2O)CC(C(C)=O)CC3=O)c1C#N (stereo not drawn)
inactive: dose: 50.0 mg/kg/injection, schedule: Q01DX001 (ip), vehicle: saline with Tween-80 100 % of control | [1] 94 % of control | dose: 200.0 mg/kg/injection, schedule: Q01DX001 (ip), vehicle: saline with Tween-80 98 % of control

Oc1ccccc1C=NCCN=Cc1ccccc1O.[CH3][Sn]([CH3])([Cl])[Cl]
inactive: dose: 12.5 mg/kg/injection, schedule: Q01DX009 (ip), vehicle: saline with Tween-80 102 % of control | dose: 25.0 mg/kg/injection, schedule: Q01DX009 (ip), vehicle: saline with Tween-80 110 % of control | [2] 107 % of control

CCOC(=O)CCCc1ccc(N=NN(C)CC(C)C)cc1
inactive: [3] 107 % of control | dose: 100.0 mg/kg/injection, schedule: Q01DX009 (ip), vehicle: carboxymethylcellulose (CMC) 116 % of control | [4] 102 % of control | dose: 200.0 mg/kg/injection, schedule: Q01DX009 (ip), vehicle: carboxymethylcellulose (CMC) 107 % of control | [5] 113 % of control

CCn1c(C)[n+](CC)c2ccc(C(C)=O)cc21
inactive: [1] 97 % of control

COC(=O)c1cccc(OC)c1I
inactive: dose: 50.0 mg/kg/injection, schedule: Q04DX003 (ip), vehicle: Klucel (hydroxypropylcellulose) (HPC) 98 % of control | dose: 100.0 mg/kg/injection, schedule: Q04DX003 (ip), vehicle: Klucel (hydroxypropylcellulose) (HPC) 106 % of control | dose: 200.0 mg/kg/injection, schedule: Q04DX003 (ip), vehicle: Klucel (hydroxypropylcellulose) (HPC) 103 % of control

Cc1ccc(C(C)C)c(OCC(O)Cn2ccnc2)c1 (stereo not drawn)
inactive: dose: 20.0 mg/kg/injection, schedule: Q01DX001 (ip), vehicle: saline 103 % of control | dose: 40.0 mg/kg/injection, schedule: Q01DX001 (ip), vehicle: saline 101 % of control | dose: 80.0 mg/kg/injection, schedule: Q01DX001 (ip), vehicle: saline 88 % of control | dose: 100.0 mg/kg/injection, schedule: Q01DX001 (ip), vehicle: saline 94 % of control

S=P(NNc1ccccc1)(NNc1ccccc1)c1ccc(Cl)cc1
inactive: dose: 100.0 mg/kg/injection, schedule: Q04DX002 (ip), vehicle: gum acacia 89 % of control | dose: 200.0 mg/kg/injection, schedule: Q04DX002 (ip), vehicle: gum acacia 89 % of control | dose: 400.0 mg/kg/injection, schedule: Q04DX002 (ip), vehicle: gum acacia 92 % of control

O=[N+]([O-])c1ccc2c(c1)c(-c1cc(Cl)cc(Cl)c1)nc1ccccc12
inactive: [2] 104 % of control | dose: 100.0 mg/kg/injection, schedule: Q01DX009 (ip), vehicle: saline with Tween-80 103 % of control | dose: 100.0 mg/kg/injection, schedule: Q04DX003 (ip), vehicle: saline with Tween-80 93 % of control | dose: 200.0 mg/kg/injection, schedule: Q01DX009 (ip), vehicle: saline with Tween-80 106 % of control | dose: 200.0 mg/kg/injection, schedule: Q04DX003 (ip), vehicle: saline with Tween-80 90 % of control | dose: 400.0 mg/kg/injection, schedule: Q04DX003 (ip), vehicle: saline with Tween-80 93 % of control

COc1ccccc1NC(=O)NCCO
inactive: [3] 103 % of control | [4] 95 % of control | [5] 103 % of control

COc1cccc(NC(=S)NC(Cc2ccccc2)c2ccccc2)c1 (stereo not drawn)
inactive: dose: 100.0 mg/kg/injection, schedule: Q04DX002 (ip), vehicle: Klucel (hydroxypropylcellulose) (HPC) 94 % of control | dose: 200.0 mg/kg/injection, schedule: Q04DX002 (ip), vehicle: Klucel (hydroxypropylcellulose) (HPC) 101 % of control | dose: 400.0 mg/kg/injection, schedule: Q04DX002 (ip), vehicle: Klucel (hydroxypropylcellulose) (HPC) 97 % of control

CC(C)NC(N)=O
inactive: dose: 87.5 mg/kg/injection, schedule: Q01DX009 (ip), vehicle: saline 101 % of control | dose: 175.0 mg/kg/injection, schedule: Q01DX009 (ip), vehicle: saline 101 % of control | dose: 350.0 mg/kg/injection, schedule: Q01DX009 (ip), vehicle: saline 101 % of control

Nc1cc(F)c([N+](=O)[O-])cc1[N+](=O)[O-]
inactive: dose: 8.0 mg/kg/injection, schedule: Q01DX015 (ip), vehicle: carboxymethylcellulose (CMC) 89 % of control | dose: 16.0 mg/kg/injection, schedule: Q01DX015 (ip), vehicle: carboxymethylcellulose (CMC) 91 % of control | dose: 32.0 mg/kg/injection, schedule: Q01DX015 (ip), vehicle: carboxymethylcellulose (CMC) 102 % of control

C/C(=N/NC(N)=O)C1CC2CCC1CC2 (stereo not drawn)
inactive: dose: 50.0 mg/kg/injection, schedule: Q01DX009 (ip), vehicle: Klucel (hydroxypropylcellulose) (HPC) 102 % of control | dose: 100.0 mg/kg/injection, schedule: Q01DX009 (ip), vehicle: Klucel (hydroxypropylcellulose) (HPC) 93 % of control | dose: 200.0 mg/kg/injection, schedule: Q01DX009 (ip), vehicle: Klucel (hydroxypropylcellulose) (HPC) 89 % of control
